IC50 data for four molecules are collected here from patent EP4592290A1, “CARBONYL FUSED HETEROCYCLIC DERIVATIVE USED AS UBIQUITIN-SPECIFIC PROTEASE INHIBITOR” (Chia Tai Tianqing Pharmaceutical Group Co., Ltd., priority 2022, dated 2024).

A word on the IC50: it is the point on the concentration scale where inhibition reaches its midpoint.

One test deals with MDA-MB-436 cells. In words: Assay on inhibitory activity for MDA-MB-436 cell proliferation (CCK-8). The test is classed as cell-based. The note with it: Homo sapiens, 168 h, 7 days of incubation, CCK-8, absorbance at 450 nm. Here is the method: MDA-MB-436 cells in a good growth state were collected into a centrifuge tube, adjusted to a cell density of 10^4 cells/mL, and seeded in a 96-well plate (100 µL/well), and the plate was incubated overnight in a cell incubator. Compounds were added using a nanoliter pipettor, such that the final concentrations of the compounds were 1000 nM-0.457 nM. The wells were set in duplicate, and a control well was set. After another 7 days of incubation in the cell incubator, the detection reagent CCK-8 (manufacturer: Dojindo Laboratories; 10 µL/well) was added. After 2 h of incubation in the cell incubator, absorbance values were detected at 450 nm using an Envision microplate reader, the four-parameter analysis was performed, the dose-response curves were fit, and IC50 was calculated. The experimental results are shown in Table 1, where A represents 0 nM < IC50 ≤ 50 nM; B represents 50 nM < IC50 ≤ 100 nM; C represents 100 nM < IC50 ≤ 1000 nM; and D represents 1000 nM < IC50. Table 1. Inhibitory activity for MDA-MB-436 cell proliferation

The next test has as its target USP1/UAF1 (Homo sapiens, UniProt O94782). In words: Assay on USP1/UAF1 enzymatic inhibitory activity (Ub-Rhodamine). The test is classed as biochemical. The note with it: USP1/UAF1 protein 10 nM, Ub-Rhodamine 300 nM, 30 min pre-incubation, 90 min reaction. Here is the method: A USP1/UAF1 protein solution (with a concentration of 10 nM) was added to assay wells at 10 µL/well, and different compounds dissolved in DMSO were separately added to the assay wells using a nanoliter pipettor, such that the final concentrations of the compounds were 1000 nM-0.24 nM. The wells were set in duplicate, and a control well was set. After incubation of the system described above at room temperature for 30 min, Ub-Rhodamine (with a concentration of 300 nM) was added to the assay wells at 10 µL/well. The mixtures were reacted at room temperature for 90 min, and then the plate was read using a PerkinElmer Envision multifunctional microplate reader (Ex. 490 nm/Em. 520 nm). IC50 was calculated by four-parameter fitting.

Chain of USP1/UAF1 (O94782 whole entry): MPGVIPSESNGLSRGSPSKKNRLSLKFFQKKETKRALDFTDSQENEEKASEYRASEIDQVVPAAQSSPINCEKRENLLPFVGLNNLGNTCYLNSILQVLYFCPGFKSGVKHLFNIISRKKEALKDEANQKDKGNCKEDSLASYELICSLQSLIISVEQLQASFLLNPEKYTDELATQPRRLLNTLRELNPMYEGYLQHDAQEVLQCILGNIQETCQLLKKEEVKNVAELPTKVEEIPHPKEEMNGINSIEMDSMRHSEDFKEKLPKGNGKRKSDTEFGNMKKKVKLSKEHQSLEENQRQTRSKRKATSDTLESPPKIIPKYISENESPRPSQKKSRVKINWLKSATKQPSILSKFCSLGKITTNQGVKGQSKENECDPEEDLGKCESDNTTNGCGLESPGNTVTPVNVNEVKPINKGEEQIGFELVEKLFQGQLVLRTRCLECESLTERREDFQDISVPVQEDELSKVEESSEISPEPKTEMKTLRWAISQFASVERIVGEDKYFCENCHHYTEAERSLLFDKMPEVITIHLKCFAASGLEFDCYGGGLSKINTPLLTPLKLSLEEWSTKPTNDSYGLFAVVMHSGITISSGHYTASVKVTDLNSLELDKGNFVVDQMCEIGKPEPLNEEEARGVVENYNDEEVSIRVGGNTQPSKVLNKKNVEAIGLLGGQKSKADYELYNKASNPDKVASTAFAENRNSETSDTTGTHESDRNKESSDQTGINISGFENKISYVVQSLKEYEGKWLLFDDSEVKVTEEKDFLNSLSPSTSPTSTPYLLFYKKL
Chain of USP1/UAF1 (Q8TAF3 whole entry partner): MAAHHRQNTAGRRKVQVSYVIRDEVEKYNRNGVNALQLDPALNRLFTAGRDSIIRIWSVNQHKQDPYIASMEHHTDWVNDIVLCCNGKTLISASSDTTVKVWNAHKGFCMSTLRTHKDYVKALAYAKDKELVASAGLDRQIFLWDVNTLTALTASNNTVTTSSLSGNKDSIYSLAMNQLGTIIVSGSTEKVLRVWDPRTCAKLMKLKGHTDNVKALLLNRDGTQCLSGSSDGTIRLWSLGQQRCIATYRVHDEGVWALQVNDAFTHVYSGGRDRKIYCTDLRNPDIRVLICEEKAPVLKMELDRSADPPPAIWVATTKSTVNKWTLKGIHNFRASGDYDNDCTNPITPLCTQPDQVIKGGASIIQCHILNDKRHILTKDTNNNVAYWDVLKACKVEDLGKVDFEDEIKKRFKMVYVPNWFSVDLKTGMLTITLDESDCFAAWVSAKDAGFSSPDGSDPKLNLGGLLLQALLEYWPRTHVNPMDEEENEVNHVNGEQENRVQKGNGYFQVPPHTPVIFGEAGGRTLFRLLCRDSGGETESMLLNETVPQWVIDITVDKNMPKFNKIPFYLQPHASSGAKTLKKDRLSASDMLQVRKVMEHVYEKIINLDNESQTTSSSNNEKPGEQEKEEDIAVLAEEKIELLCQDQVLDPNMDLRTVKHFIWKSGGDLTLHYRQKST

Take `COc1ncnc(C2CC2)c1-c1ncc2c(c1F)n(Cc1ccc(-c3nc(C(F)(F)F)cn3C)cc1)c(=O)n2C` [Example 3]: the IC50 with MDA-MB-436 cells and against USP1/UAF1 was less than 50 nM each time.
For the molecule `[2H]C([2H])([2H])n1c(=O)n(Cc2ccc(-n3nc(C(F)(F)F)cc3C)cc2)c2c(F)c(-c3c(OC)ncnc3C3CC3)ncc21` [Example 15], the IC50 with MDA-MB-436 cells was 50 to 100 nM; against USP1/UAF1, less than 50 nM.
In the case of `[2H]C([2H])([2H])n1c(=O)n(Cc2ccc(-c3nc(C(F)(F)F)cn3C(C)C)cc2)c2c(F)c(-c3c(OC)ncnc3C3CC3)ncc21` [Example 16], the IC50 in the test with MDA-MB-436 cells and on USP1/UAF1 was less than 50 nM each time.
`[2H]C([2H])([2H])n1c(=O)n(Cc2ccc(-n3nc(C(C)(F)F)cc3C)cc2)c2c(F)c(-c3c(OC)ncnc3C3CC3)ncc21` [Example 17]: the IC50 in the test with MDA-MB-436 cells and on USP1/UAF1 was 50 to 100 nM throughout.
